From patent US20240309066A1, “MEANS AND METHODS FOR THE TREATMENT OF CALCIUM CRYSTAL DEPOSITION DISEASES” (UNIVERSITEIT MAASTRICHT, priority 2021, published 2024)
[ ]: non-standard residue; d: D form.

Experiments:
[1] = In vitro calcium phosphate precipitation assay; format: biochemical; details: for Precipitation inhibition: absorption measurement before SEM processing
Description: To evaluate the inhibitory capacity of the peptide according to SEQ ID NO: 1, we utilized a well-established in vitro calcium phosphate precipitation assay (17-19) as described in example 2.
Calcium precipitation assays were performed essentially as described before with minor adaptations (19). 2.4 mM ionic calcium (0.1M stock) was added to a 50 mM Tris/HCL buffer (pH 7.4) in 1.5 ml Eppendorf tubes. Peptide or bFetuin were added and incubated for 15 minutes at room temperature. Subsequently, 1.6 mM phosphate buffer (0.1M stock) was added and the mixture was incubated for 120 minutes at 37° C.
Data were normalized to the first positive control (normalized to 100%) in each experiment. As an internal reference for precipitation inhibition, we used 1 mg/ml, 0.5 mg/ml and 0.25 mg/ml bovine Fetuin (bFetuin, Sigma-Aldrich, #F2379) in each experiment. After 2 hours, samples were transferred to cuvettes (1.0 ml reactions) and absorbance was measured at A620 in a plate reader with a plate reader (Biorad). Each condition consisted of three biological replicates.

[2] = Total calcium, phosphate and protein measurements in pellets of in vitro precipitates; format: biochemical; details: 24 hours; control 14%
Description: To test this, particles were allowed to form for 2 or 24 hours in the presence or absence (control) of bFetuin or the peptide according to SEQ ID NO: 1. and subsequently harvested by centrifugation, washed and dissolved in acid, followed by total calcium, phosphate and protein measurements in the pellet and the supernatant.
Quantification of deposited calcium was carried out using a calcium determination kit (Randox, London, United Kingdom) according to the manufacturer's instruction, after hydrolysis of mineral deposits in 0.1M HCl. Calcium measurements were normalized to protein content using micro DC Protein Assay (Termo Scientifc, Bleiswijk, the Netherlands). To be able to measure protein content, an equal amount of 0.1M NaOH was used to neutralize the acid and 0.1% SDS (final concentration) was added to lyse cells in the cellular calcification assays.
Quantification of deposited phosphate was carried out using a phosphate colorimetric assay (Sigma, MK030) according to manufacturer's instruction after solubilisation of precipitates in 0.1M HCL.

[3] = test system: Human articular chondrocytes (HACs); test: ATP-induced human articular chondrocyte calcification model; format: cell-based; details: 7 days, 1 mM ATP, 20 μM peptide, vs control with ATP
Description: (§1) FIG. 3: Inhibition of cellular calcification of human articular chondrocytes, vascular smooth muscle cells and bone marrow stromal cells by the peptide according to SEQ ID NO: 1. Representative phase-contrast microscopy images of in vivo cell assays are shown. • A) Human articular chondrocytes (HACs) were stimulated for 7 days with 1 mM ATP and with or without 20 μM of the peptide. Results were obtained from three chondrocyte donors with three biological replicates each. • B) Vascular smooth muscle cells (VSMC) were stimulated for 7 days with 4.5 mM ionic calcium in the presence or absence of 20 μM of peptide. Results were obtained from three VSMC donors with three biological replicates each. • C) BMSCs were differentiated for 21 days in osteogenic differentiation medium containing beta-glycerophosphate (BGP) in the pre- or absence of 2.1 μM of peptide. BMSC; one donor with four biological replicates was used. • Left panels: phase-contrast images were obtained at the final day of each experiment. […] Scale bars indicate 200 μm. • Right panels: quantification of total calcium precipitation per well measured with the Randox total calcium assay and normalized to total protein. […]
(§2) Quantification of deposited calcium was carried out using a calcium determination kit (Randox, London, United Kingdom) according to the manufacturer's instruction, after hydrolysis of mineral deposits in 0.1M HCl. […]

[4] = test system: Vascular smooth muscle cells (VSMC); test: Calcium-induced vascular smooth muscle cell calcification model; format: cell-based, human; details: 7 days, 4.5 mM ionic calcium, 20 μM peptide
Description: as §1, with “peptide.” for “peptide. Results were obtained from three VSMC donors with three biological replicates each. • C) BMSCs were differentiated for 21 days in osteogenic differentiation medium containing beta-glycerophosphate (BGP) in the pre- or absence of 2.1 μM of peptide. BMSC; one donor with four biological replicates was used. • Left panels: phase-contrast images were obtained at the final day of each experiment.”
as §2
Human primary smooth muscle cells (VSMCs) were derived from tissue explants from patients undergoing surgery. […] Success of the isolation was determined by immunofluorescence staining for positive expression of alpha-smooth muscle actin (αSMA), smooth muscle protein 22-alpha (SM22α), phosphorylated myosin light chain 2 (pMLC) and absence of S100 C Calcium Binding Protein 4 (S100A4). […]

[5] = test system: Bone marrow derived stromal cells (BMSCs); test: Beta-glycerophosphate-induced BMSC osteogenic differentiation model; format: cell-based, human; details: 21 days osteogenic differentiation medium with BGP, 2.1 μM peptide
Description: as §1, §2

rat osteoarthritis model = test: Rat osteoarthritis model (medial meniscal tear, collateral ligament transection); format: in vivo, Lewis rats
Description: FIG. 4: Intra-articular injection of the peptide ameliorates cartilage histopathology and improves animal mobility in a rat osteoarthritis model. Osteoarthritis was induced by introducing a surgical tear of the medial meniscus and transection of the collateral ligament (N=40). Bi-weekly intra-articular injections of 50 μl peptide with a concentration of 20 μM or 50 μl vehicle (0.9% NaCl) were performed (N=20 per group). Necropsy was performed at day 28, followed by histological analyses according to the OARSI scoring system.
• A) Representative toluidine blue stained tissue sections from the best, average and worst histological appearance. Cartilage tissue is stained in dark blue. • B) The OARSI score was obtained by multiplying grade and stage of cartilage damage per animal by two blinded observers. Statistical comparison was done with a two-tailed t-test. *=p. value<0.05. • C) Gait analyses score at day 20 of the experiment. Four measurements per animal were performed and each dot represents the average of one animal in the graph. Statistical significance between groups was determined with a Mann-Whitney U test. *=p. value<0.05.
We also evaluated the effect of bi-weekly intra-articular injection of the peptide in a rat osteoarthritis model (FIG. 4). Osteoarthritis was induced with a surgical tear of the medial meniscus and transection of the collateral ligament (N=40). […]

| Molecule | Precipitation inhibition ([1]; 20 μM peptide, 2 hours) [%] | efficiency of inhibition of in vitro calcium phosphate precipitation, comparison ([1]; compared with bFetuin) | concentration range down to which activity remained ([1]; dilution series in steps of 10, 2 hours) | concentration able to statistically significantly inhibit precipitation compared to control ([1]; dilution series, 2 hours) [aM] | concentration not able to statistically significantly inhibit precipitation ([1]; dilution series, 2 hours) [aM] | phosphate content in pellet [2] [%] | inhibition of calcification [3] | inhibition of calcification [4] | inhibition of calcium precipitation [5] [%] | reduction of histopathological OA score (OARSI) (rat osteoarthritis model; day 28 post-surgery, bi-weekly intra-articular 50 μl of 20 μM, vs vehicle) [%] | animals having a normal gait (rat osteoarthritis model; gait analysis day 20, bi-weekly intra-articular 50 μl of 20 μM, vehicle 5/20) | Precipitation inhibition ([1]; 0.5 mg/ml bFetuin, 2 hours) [%] | inhibition of precipitation ([1]; 1 mg/ml (20.6 μM), positive control) | concentration at which the inhibitory effect is lost ([1]; dilution series, 2 hours, molar equivalent of μg/ml) [nM] |
| --- | --- | --- | --- | --- | --- | --- | --- | --- | --- | --- | --- | --- | --- | --- |
| peptide according to SEQ ID NO: 1: circular polypeptide of 30 D-amino acids LIYRQPNCDDPETEEAALVAIDYIAPHGPG, D-Leucine at position 1 linked to D-Glycine at position 30 (cyclo([dL][dI][dY][dR][dQ][dP][dN][dC][dD][dD][dP][dE][dT][dE][dE][dA][dA][dL][dV][dA][dI][dD][dY][dI][dA][dP][dH]G[dP]G); SMILES CC[C@@H](C)[C@H]1NC(=O)[C@@H](C)NC(=O)[C@@H](C(C)C)NC(=O)[C@@H](CC(C)C)NC(=O)[C@@H](C)NC(=O)[C@@H](C)NC(=O)[C@@H](CCC(=O)O)NC(=O)[C@@H](CCC(=O)O)NC(=O)[C@@H]([C@H](C)O)NC(=O)[C@@H](CCC(=O)O)NC(=O)[C@H]2CCCN2C(=O)[C@@H](CC(=O)O)NC(=O)[C@@H](CC(=O)O)NC(=O)[C@@H](CS)NC(=O)[C@@H](CC(N)=O)NC(=O)[C@H]2CCCN2C(=O)[C@@H](CCC(N)=O)NC(=O)[C@@H](CCCNC(=N)N)NC(=O)[C@@H](Cc2ccc(O)cc2)NC(=O)[C@@H]([C@H](C)CC)NC(=O)[C@@H](CC(C)C)NC(=O)CNC(=O)[C@H]2CCCN2C(=O)CNC(=O)[C@@H](Cc2c[nH]cn2)NC(=O)[C@H]2CCCN2C(=O)[C@@H](C)NC(=O)[C@@H]([C@H](C)CC)NC(=O)[C@@H](Cc2ccc(O)cc2)NC(=O)[C@@H](CC(=O)O)NC1=O; listed as Homo Sapiens) | ~50 | more efficiently than bFetuin | remained active until the attomolar concentration range | 20.6 | 2.6 | 9 | 22-33% | 58-61% | 81 | 38 | 16/20 |  |  |  |
| bFetuin: bovine Fetuin (Sigma-Aldrich, #F2379), positive control for precipitation inhibition (protein, UniProt Q58D62 19-387, looked up) Fetuin-B: TSPPQPAARPSSLLSLDCNSSYVLDIANDILQDINRDRKDGYVLSLNRVSDAREHRQEAGLGSLFYFTLDVLETGCHVLSRTSWKNCEVRIFHESVYGQCKAIFYINKEKRIFYLPAYNCTLRPVSQSAIIMTCPDCPSTSPYDLSNPRFMETATESLAKYNSESPSKQYSLVKITKTSSQWVFGPAYFVEYLIKESPCVKSEGSSCALESPGSVPVGICHGSLGEPQGNQGKIISVTCSFFNSQAPTPRGENATVNQRPANPSKTEELQQQNTAPTNSPTKAVPKGSVQYLPDWDKKREGSQEKDPVETFPVQLDLTTNPQGESLDVSFLFQEPMEEKVVVLPFPSKEQRSAECPGPAQKGYPFILPS |  |  |  |  |  | 9 |  |  |  |  |  | ~50 | completely inhibit precipitation | 20.6 to 200.6 |
